Test results reported in publication PMC12136037, “Type II kinase inhibitors that target Parkinson’s disease–associated LRRK2” (Science Advances, 2025).

What was measured:
Experiment in all cases: DSF 100 kinase selectivity screen;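 note: compound tested at 20 µM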
Type in all cases: binding
[1] = target: T1, ~100 representative kinases (Homo sapiens, UniProt O14965); conditions: Protein STK6; DSF; average of three replicates
T1 construct: Recombinant protein kinase domains with a concentration of 2 μM
T1 sequence (O14965 1-403): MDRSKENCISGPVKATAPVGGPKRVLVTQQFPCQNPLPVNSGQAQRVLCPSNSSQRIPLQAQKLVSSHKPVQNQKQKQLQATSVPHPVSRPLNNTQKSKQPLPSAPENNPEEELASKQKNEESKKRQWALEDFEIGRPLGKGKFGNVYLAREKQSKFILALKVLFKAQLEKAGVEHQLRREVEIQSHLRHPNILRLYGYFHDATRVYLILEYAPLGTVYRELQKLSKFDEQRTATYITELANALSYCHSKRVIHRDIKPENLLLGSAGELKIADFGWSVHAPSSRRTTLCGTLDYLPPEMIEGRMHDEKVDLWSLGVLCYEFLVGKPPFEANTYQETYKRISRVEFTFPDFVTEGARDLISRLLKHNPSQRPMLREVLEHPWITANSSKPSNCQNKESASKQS
In short: (§1)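 Each kinase domain, at 2 μM, is mixed with 20 μM test compound and SYPRO Orange in Hepes (20 mM, pH 7.5) with 500 mM NaCl. Temperature is then raised at 3°C/min and fluorescence-monitored unfolding yields the melting temperature change, ΔTm in degrees Celsius.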

[2] = target: T2, ~100 representative kinases (Homo sapiens, UniProt P00519); conditions: Protein ABL1; average of three replicates
T2 construct: Recombinant protein kinase domains with a concentration of 2 μM
T2 sequence (P00519 whole entry, the tested form may be a part): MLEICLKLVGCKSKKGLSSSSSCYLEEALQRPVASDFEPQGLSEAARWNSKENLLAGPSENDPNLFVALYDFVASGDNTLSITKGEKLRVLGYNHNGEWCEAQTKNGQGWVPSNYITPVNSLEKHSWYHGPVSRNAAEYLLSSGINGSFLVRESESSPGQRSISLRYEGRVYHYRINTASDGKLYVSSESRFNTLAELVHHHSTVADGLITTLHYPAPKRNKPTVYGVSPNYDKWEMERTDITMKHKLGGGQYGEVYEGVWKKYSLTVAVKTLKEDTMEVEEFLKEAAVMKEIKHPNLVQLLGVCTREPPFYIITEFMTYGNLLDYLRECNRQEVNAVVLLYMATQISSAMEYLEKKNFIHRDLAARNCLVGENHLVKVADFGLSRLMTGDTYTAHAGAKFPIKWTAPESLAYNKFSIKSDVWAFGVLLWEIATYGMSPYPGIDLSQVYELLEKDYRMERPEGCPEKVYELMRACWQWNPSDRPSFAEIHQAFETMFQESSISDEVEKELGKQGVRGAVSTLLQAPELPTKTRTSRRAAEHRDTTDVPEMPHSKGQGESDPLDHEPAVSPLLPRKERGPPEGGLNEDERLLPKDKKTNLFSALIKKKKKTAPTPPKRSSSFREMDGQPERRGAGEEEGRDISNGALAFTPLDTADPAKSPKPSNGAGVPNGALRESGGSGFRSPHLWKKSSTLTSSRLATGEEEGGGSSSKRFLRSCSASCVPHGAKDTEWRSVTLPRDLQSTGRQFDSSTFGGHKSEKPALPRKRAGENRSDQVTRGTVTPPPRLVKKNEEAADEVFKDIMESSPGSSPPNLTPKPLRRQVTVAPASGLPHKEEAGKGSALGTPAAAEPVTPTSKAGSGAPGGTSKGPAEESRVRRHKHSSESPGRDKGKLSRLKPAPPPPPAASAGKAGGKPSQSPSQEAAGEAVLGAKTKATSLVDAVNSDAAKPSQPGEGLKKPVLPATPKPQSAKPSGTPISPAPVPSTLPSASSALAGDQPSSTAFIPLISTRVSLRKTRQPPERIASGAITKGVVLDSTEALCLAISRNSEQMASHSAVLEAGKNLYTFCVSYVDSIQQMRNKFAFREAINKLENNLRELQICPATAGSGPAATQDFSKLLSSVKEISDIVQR
In short: as §1

[3] = target: T3, ~100 representative kinases (Homo sapiens, UniProt Q12866); conditions: protein MERTK; average of three replicates
T3 construct: Recombinant protein kinase domains with a concentration of 2 μM
T3 sequence (Q12866 21-999): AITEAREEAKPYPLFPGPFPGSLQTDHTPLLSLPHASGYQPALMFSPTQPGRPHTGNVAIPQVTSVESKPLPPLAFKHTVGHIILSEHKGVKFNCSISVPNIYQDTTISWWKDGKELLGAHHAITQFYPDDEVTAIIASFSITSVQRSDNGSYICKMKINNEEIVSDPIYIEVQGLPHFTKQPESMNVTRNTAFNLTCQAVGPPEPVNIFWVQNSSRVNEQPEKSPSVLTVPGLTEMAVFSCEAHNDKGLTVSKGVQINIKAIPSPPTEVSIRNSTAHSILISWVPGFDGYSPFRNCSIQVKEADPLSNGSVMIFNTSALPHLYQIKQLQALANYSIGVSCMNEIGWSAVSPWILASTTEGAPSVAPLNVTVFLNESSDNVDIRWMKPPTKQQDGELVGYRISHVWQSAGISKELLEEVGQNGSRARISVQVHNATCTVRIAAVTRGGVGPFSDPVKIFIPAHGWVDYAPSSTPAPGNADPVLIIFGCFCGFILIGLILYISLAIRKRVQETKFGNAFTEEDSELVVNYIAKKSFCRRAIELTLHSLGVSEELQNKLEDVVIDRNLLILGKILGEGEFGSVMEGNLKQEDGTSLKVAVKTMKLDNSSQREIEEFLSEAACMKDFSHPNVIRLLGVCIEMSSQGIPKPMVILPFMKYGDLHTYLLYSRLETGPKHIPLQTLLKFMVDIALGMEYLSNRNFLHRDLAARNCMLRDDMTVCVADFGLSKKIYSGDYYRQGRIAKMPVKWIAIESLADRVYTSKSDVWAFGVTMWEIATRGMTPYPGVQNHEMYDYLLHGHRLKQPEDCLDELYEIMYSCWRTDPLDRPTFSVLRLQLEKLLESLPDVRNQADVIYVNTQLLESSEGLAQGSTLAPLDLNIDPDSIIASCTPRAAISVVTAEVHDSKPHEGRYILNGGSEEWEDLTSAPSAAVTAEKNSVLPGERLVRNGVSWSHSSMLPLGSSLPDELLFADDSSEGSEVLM
In short: as §1

[4] = target: T4, ~100 representative kinases (Homo sapiens, UniProt Q13043); conditions: Protein STK4; DSF; average of three replicates
T4 construct: Recombinant protein kinase domains with a concentration of 2 μM
T4 sequence (Q13043 1-487): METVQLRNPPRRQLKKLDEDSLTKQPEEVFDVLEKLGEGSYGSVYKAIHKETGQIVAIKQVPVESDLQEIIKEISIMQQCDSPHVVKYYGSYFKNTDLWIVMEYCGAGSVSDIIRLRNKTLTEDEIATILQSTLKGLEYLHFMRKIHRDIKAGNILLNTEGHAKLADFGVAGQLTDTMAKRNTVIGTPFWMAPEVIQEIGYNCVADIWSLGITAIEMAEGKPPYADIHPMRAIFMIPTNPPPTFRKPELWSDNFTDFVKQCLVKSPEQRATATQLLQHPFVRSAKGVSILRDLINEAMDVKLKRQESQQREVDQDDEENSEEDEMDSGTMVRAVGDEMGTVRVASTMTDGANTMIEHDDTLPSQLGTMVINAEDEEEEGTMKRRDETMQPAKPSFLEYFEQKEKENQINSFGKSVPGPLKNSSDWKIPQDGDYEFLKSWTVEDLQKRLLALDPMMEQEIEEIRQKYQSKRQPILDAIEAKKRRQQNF
In short: as §1

[5] = target: T5, ~100 representative kinases (Homo sapiens, UniProt Q14680); conditions: protein MELK; average of three replicates
T5 construct: Recombinant protein kinase domains with a concentration of 2 μM
T5 sequence (Q14680 whole entry, the tested form may be a part): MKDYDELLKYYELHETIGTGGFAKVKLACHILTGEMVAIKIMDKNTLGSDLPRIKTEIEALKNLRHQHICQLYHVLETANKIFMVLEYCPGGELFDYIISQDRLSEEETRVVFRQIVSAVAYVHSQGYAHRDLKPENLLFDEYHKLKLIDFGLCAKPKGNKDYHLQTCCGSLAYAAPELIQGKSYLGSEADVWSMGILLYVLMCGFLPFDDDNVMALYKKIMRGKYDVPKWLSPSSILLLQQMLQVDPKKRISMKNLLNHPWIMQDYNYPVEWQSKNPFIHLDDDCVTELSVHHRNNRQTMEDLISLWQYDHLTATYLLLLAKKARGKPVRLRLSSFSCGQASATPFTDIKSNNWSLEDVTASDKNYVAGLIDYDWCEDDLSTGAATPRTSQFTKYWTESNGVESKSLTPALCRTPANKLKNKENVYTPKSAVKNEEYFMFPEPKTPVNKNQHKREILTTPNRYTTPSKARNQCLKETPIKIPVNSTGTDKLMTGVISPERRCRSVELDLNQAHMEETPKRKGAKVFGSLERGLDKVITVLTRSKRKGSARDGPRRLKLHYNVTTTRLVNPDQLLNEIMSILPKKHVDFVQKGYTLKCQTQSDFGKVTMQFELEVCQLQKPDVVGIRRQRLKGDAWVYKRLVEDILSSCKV
In short: as §1

[6] = target: T6, ~100 representative kinases (Homo sapiens, UniProt Q9H2X6); conditions: protein HIPK2; average of three replicates
T6 construct: Recombinant protein kinase domains with a concentration of 2 μM
T6 sequence (Q9H2X6 whole entry, the tested form may be a part): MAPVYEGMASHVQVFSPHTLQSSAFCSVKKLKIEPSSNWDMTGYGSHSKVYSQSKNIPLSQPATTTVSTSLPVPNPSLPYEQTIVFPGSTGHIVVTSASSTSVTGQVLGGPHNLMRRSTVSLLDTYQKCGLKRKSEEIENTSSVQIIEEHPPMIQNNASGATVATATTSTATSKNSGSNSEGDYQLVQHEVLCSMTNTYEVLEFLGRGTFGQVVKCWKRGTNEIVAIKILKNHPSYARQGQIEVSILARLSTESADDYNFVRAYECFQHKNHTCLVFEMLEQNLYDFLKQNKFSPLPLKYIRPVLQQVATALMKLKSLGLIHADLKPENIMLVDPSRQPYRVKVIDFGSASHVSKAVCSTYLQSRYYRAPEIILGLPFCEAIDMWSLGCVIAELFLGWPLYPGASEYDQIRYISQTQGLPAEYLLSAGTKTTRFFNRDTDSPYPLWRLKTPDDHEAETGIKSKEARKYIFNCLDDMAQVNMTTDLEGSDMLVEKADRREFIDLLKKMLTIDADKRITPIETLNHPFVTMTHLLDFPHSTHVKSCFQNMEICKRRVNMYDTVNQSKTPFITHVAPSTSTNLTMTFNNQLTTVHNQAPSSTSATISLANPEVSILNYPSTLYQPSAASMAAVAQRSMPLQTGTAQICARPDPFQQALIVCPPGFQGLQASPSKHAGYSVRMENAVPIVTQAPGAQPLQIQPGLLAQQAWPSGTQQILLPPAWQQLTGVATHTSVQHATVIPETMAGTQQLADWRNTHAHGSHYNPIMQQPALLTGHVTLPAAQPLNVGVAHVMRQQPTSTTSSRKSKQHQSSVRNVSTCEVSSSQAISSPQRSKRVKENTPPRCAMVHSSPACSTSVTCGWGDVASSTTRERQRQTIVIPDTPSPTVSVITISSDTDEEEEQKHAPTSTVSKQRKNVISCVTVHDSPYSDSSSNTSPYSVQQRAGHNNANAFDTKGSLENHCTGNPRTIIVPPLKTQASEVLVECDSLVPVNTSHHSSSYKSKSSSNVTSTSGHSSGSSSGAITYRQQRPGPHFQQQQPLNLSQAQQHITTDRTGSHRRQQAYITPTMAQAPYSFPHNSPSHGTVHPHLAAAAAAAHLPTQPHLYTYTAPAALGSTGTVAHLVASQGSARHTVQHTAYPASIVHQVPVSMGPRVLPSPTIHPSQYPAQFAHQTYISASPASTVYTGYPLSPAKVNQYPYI
In short: as §1

[7] = target: T7, ~100 representative kinases (Homo sapiens, UniProt Q9H4A3); conditions: Protein WNK1; DSF; average of three replicates
T7 construct: Recombinant protein kinase domains with a concentration of 2 μM
In short: as §1

[8] = target: T8, ~100 representative kinases (Homo sapiens, UniProt Q9Y2H1); conditions: Protein STK38L; DSF; average of three replicates
T8 construct: Recombinant protein kinase domains with a concentration of 2 μM
T8 sequence (Q9Y2H1 whole entry, the tested form may be a part): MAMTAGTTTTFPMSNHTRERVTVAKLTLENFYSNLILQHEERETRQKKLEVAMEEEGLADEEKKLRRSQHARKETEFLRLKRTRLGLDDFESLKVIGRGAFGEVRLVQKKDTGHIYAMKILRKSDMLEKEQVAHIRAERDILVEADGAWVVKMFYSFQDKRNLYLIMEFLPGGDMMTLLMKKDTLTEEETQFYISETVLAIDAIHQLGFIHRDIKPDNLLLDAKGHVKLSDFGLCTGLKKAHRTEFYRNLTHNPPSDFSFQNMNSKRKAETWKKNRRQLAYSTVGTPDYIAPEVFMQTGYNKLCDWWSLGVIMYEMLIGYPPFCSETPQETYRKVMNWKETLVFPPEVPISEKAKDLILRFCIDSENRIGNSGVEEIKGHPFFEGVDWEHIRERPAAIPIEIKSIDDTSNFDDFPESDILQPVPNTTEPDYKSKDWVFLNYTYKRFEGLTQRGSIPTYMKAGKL
In short: as §1

SMILES	dTm [1]	dTm [2]	dTm [3]	dTm [4]	dTm [5]	dTm [6]	dTm [7]	dTm [8]
O=C(Nc1ccc(Cl)cc1)C1(C(=O)Nc2cccc(-c3c[nH]c4ncnc(N5CCOCC5)c34)c2)CC1 [Compound 13]	9.16 K	2.64 K	3.45 K	7.95 K	15.01 K	10.73 K	0.30 K	0.49 K
O=C(Nc1ccc(F)cc1)C1(C(=O)Nc2cccc(-c3c[nH]c4ncnc(N5CCOCC5)c34)c2)CC1 [Compound 2]	6.07 K	1.47 K	2.38 K	5.05 K	14.87 K	9.65 K	-0.45 K	-0.20 K
COc1ccc(NC(=O)C2(C(=O)Nc3cccc(-c4c[nH]c5ncnc(N6CCOCC6)c45)c3)CC2)cc1 [Compound 16]	5.48 K	1.06 K	-1.03 K	2.68 K	8.41 K	6.00 K	-0.0251 K	-0.19 K
Cc1cc(F)ccc1NC(=O)C1(C(=O)Nc2cccc(-c3c[nH]c4ncnc(N5CCOCC5)c34)c2)CC1 [Compound 24]	6.56 K	1.15 K	0.66 K	4.47 K	12.59 K	4.12 K	-0.0334 K	-0.0467 K
CCc1ccc(NC(=O)C2(C(=O)Nc3cccc(-c4c[nH]c5ncnc(N6CCOCC6)c45)c3)CC2)cc1 [Compound 15]	9.54 K	1.94 K	0.37 K	5.52 K	6.77 K	8.10 K	0.33 K	0.73 K
O=C(Nc1cccc(-c2c[nH]c3ncnc(N4CCOCC4)c23)c1)C1(C(=O)Nc2ccc(F)c(F)c2)CC1 [Compound 17]	7.27 K	1.22 K	1.34 K	5.12 K	14.46 K	9.54 K	0.57 K	0.13 K
C[C@@H]1CN(c2cc(-c3n[nH]c4ccc(OC5(C)CC5)cc34)ncn2)C[C@H](C)O1 [MLi2]	0.17 K	0.50 K	0.0155 K	-0.67 K	0.47 K	0.22 K	0.19 K	-0.08 K
COc1cc(NC(=O)C2(C(=O)Nc3cccc(-c4c[nH]c5ncnc(N6CCOCC6)c45)c3)CC2)ccc1F [Compound 21]	6.06 K	1.21 K	0.18 K	3.89 K	16.69 K	9.11 K	-0.19 K	-0.18 K
Cc1ccc(C(=O)Nc2ccc(CN3CCN(C)CC3)c(C(F)(F)F)c2)cc1C#Cc1c[nH]c2ncnc(N3CCOCC3)c12 [Compound 1]	12.62 K	7.59 K	3.23 K	7.61 K	8.08 K	4.31 K	1.39 K	2.95 K
O=C(Nc1cccc(-c2c[nH]c3ncnc(N4CCOCC4)c23)c1)C1(C(=O)Nc2cc(Br)c(F)cc2F)CC1 [Compound 25]	6.39 K	1.76 K	1.84 K	0.00 K	14.53 K	1.71 K	1.20 K	0.00 K
O=C(Nc1cccc(-c2c[nH]c3ncnc(N4CCOCC4)c23)c1)c1cccn(-c2ccc(F)cc2)c1=O [Compound 4]	7.18 K	2.49 K	5.74 K	7.31 K	12.90 K	8.43 K	-0.00745 K	-0.37 K
CC(C)(C)c1cccc(NC(=O)C2(C(=O)Nc3cccc(-c4c[nH]c5ncnc(N6CCOCC6)c45)c3)CC2)c1 [Compound 22]	6.69 K	2.30 K	2.25 K	5.49 K	17.31 K	3.44 K	-1.93 K	-2.35 K

Second part, the compound after the results:

dTm [1]	dTm [2]	dTm [3]	dTm [4]	dTm [5]	dTm [6]	dTm [7]	dTm [8]	SMILES
3.22 K	1.16 K	-0.62 K	-1.57 K	1.11 K	0.93 K	0.40 K	-1.36 K	COc1cc(C(=O)N2CCOCC2)c(F)cc1Nc1nc(N(C)C)c2c(Cl)c[nH]c2n1 [Compound 36]
-0.19 K	0.38 K	-0.61 K	-0.52 K	0.45 K	0.11 K	0.04 K	-1.21 K	COc1cc(S(C)(=O)=O)ccc1Nc1nc(N(C)C)c2c(Cl)c[nH]c2n1 [Compound 37]
3.83 K	1.83 K	1.09 K	0.00 K	13.99 K	2.07 K	1.13 K	-2.16 K	O=C(Nc1cccc(-c2c[nH]c3ncnc(N4CCOCC4)c23)c1)C1(C(=O)Nc2ccc(F)c(Br)c2F)CC1 [Compound 26]
4.13 K	10.07 K	2.79 K	8.44 K	6.41 K	9.24 K	1.43 K	-0.41 K	Cc1ccc(-n2nc(C(C)(C)C)cc2NC(=O)Nc2cccc(-c3c[nH]c4ncnc(N5CCOCC5)c34)c2)cc1 [Compound 29]
4.77 K	1.02 K	0.27 K	0.00 K	12.52 K	1.50 K	0.64 K	-0.80 K	O=C(Nc1cc(F)cc(Br)c1)C1(C(=O)Nc2cccc(-c3c[nH]c4ncnc(N5CCOCC5)c34)c2)CC1 [Compound 27]
